Measurements from ChEMBL document CHEMBL5143673, “The evaluation of N-propargylamine-2-aminotetralin as an inhibitor of monoamine oxidase” (Bioorg Med Chem Lett, 2022).

Key:
Rattus norvegicus = species on record: Rattus norvegicus; experiment: Selectivity index, ratio of IC50 for inhibition of rat brain MAOA to IC50 for rat brain MAOB
[1] = target: T1, Amine oxidase [flavin-containing] A (Rattus norvegicus, UniProt P21396); experiment: Inhibition of rat brain MAOA using kynuramine substrate by fluorescence spectrophotometry; type: toxicity
T1 sequence (P21396 whole entry): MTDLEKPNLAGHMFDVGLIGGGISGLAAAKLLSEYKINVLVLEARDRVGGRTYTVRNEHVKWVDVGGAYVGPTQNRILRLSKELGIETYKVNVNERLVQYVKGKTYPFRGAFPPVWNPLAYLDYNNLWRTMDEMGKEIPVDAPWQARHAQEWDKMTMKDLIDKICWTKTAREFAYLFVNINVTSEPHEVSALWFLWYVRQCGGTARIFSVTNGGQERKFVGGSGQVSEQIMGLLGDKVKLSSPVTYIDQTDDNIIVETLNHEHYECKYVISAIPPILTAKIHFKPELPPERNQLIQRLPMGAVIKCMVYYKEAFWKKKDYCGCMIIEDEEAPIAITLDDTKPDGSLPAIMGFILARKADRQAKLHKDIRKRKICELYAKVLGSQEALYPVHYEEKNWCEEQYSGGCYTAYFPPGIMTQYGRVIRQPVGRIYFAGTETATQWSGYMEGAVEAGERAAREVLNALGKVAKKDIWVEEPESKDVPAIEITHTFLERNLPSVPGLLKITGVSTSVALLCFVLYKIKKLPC

[2] = target: T2, Amine oxidase [flavin-containing] B (Rattus norvegicus, UniProt P19643); experiment: Inhibition of rat brain MAOB using kynuramine substrate by fluorescence spectrophotometry
T2 sequence (P19643 whole entry): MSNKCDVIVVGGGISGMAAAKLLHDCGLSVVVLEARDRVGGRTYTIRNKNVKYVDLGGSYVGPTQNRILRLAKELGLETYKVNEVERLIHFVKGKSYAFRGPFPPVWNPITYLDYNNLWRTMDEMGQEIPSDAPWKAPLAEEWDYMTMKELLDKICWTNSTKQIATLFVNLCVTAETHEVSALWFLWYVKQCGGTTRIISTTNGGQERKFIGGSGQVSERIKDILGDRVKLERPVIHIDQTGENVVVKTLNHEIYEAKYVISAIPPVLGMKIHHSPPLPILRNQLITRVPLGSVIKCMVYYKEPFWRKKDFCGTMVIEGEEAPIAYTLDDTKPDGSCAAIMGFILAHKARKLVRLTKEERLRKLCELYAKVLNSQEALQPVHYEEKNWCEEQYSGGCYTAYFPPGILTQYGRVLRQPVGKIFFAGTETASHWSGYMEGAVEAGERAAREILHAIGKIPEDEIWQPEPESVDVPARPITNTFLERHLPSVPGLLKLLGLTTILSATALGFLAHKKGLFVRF

MAO-A [3] = target: T3, MAO-A (Homo sapiens, UniProt P21397); experiment: Resistance index, ratio of IC50 for toloxatone to IC50 for test compound for inhibition of human recombinant MAOA using kynuramine substrate incubated for 20 mins by fluorescence spectrophotometry; type: toxicity; details: probe kynuramine, read-out: Ratio IC50
T3 sequence (P21397 whole entry): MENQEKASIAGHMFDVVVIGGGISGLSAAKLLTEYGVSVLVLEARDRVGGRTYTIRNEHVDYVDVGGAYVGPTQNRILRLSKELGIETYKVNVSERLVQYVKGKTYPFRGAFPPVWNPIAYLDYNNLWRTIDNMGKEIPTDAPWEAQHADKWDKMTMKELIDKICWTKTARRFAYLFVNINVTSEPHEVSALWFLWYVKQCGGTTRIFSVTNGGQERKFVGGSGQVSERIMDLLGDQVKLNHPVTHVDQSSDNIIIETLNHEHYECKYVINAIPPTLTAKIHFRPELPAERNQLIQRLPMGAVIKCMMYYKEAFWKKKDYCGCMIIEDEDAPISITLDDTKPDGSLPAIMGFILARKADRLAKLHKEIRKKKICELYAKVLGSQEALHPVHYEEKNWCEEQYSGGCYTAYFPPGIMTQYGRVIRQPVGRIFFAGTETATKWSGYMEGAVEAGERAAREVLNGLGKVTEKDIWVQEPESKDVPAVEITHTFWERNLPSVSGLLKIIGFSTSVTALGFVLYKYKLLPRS

[4] = target: T4, Amine oxidase [flavin-containing] A (Homo sapiens, UniProt P21397); experiment: Inhibition of human recombinant MAOA using kynuramine substrate incubated for 20 mins by fluorescence spectrophotometry; type: toxicity
T4 sequence (P21397 whole entry): T3 sequence (P21397 whole entry)

[5] = target: T5, Amine oxidase [flavin-containing] B (Homo sapiens, UniProt P27338); experiment: Inhibition of human recombinant MAOB using kynuramine substrate incubated for 20 mins by fluorescence spectrophotometry
T5 sequence (P27338 whole entry): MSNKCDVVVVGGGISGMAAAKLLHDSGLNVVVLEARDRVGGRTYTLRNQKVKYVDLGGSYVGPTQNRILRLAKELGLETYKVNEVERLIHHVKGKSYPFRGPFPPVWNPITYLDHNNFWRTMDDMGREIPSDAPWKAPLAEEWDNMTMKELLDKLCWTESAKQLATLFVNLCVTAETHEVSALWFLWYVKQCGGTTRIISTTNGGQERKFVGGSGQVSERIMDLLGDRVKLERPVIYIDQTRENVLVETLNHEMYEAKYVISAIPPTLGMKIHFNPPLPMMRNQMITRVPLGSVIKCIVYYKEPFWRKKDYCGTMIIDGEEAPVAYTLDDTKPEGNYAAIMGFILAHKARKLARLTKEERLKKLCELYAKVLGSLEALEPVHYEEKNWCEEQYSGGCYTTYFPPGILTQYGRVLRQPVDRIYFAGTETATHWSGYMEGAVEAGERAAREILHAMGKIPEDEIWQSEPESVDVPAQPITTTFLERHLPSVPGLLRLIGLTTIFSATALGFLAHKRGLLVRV

Homo sapiens = species on record: Homo sapiens; experiment: Selectivity index, ratio of IC50 for inhibition of human recombinant MAOA to IC50 for human recombinant MAOB
MAO-A [6] = target: T3, MAO-A; experiment: Inhibition of human recombinant MAOA assessed as enzyme activity recovery level at 4 times IC50 using kynuramine substrate incubated for 15 mins followed by 24 hrs dialysis by fluorescence spectrophotometry; type: toxicity; parameters: scale not given: the % may be the effect or the level left; details: probe kynuramine, read-out: Activity
MAO-A [7] = target: T3, MAO-A; experiment: Inhibition of human recombinant MAOA assessed as enzyme activity recovery level at 4 times IC50 using kynuramine substrate incubated for 15 mins followed by without dialysis by fluorescence spectrophotometry; type: toxicity; parameters: scale not given: the % may be the effect or the level left; details: probe kynuramine, read-out: Activity
[8] = target: T5, Amine oxidase [flavin-containing] B; experiment: Inhibition of human recombinant MAOB assessed as enzyme activity recovery level at 4 times IC50 using kynuramine substrate incubated for 15 mins followed by 24 hrs dialysis by fluorescence spectrophotometry; parameters: scale not given: the % may be the effect or the level left; details: 0.25 h
[9] = target: T5, Amine oxidase [flavin-containing] B; experiment: Inhibition of human recombinant MAOB assessed as enzyme activity recovery level at 4 times IC50 using kynuramine substrate incubated for 15 mins followed by without dialysis by fluorescence spectrophotometry; parameters: scale not given: the % may be the effect or the level left; details: 0.25 h
[10] = target: T5, Amine oxidase [flavin-containing] B; experiment: Time dependent inhibition of human recombinant MAOB at […] using kynuramine substrate incubated for 5 to 35 mins by fluorescence spectrophotometry; details: TDE = time-dependent effect, time 5-35 min
[11] = target: T5, Amine oxidase [flavin-containing] B; experiment: Time dependent inhibition of human recombinant MAOB at 0.25 to 1.25 uM using kynuramine substrate by fluorescence spectrophotometry based L-B plot analysis
[12] = target: T5, Amine oxidase [flavin-containing] B; experiment: Time dependent inhibition of human recombinant MAOB at 0.25 to 1.25 uM using kynuramine substrate by fluorescence spectrophotometry based graphing of slopes of Lineweaver-Burk plots versus inhibitor concentration
MAO-A [13] = target: T3, MAO-A; experiment: Inhibition of human recombinant MAOA assessed as enzyme activity recovery level using kynuramine substrate incubated for 15 mins followed by 24 hrs dialysis by fluorescence spectrophotometry; type: toxicity; parameters: scale not given: the % may be the effect or the level left; details: probe kynuramine, read-out: Activity

**Q.** `C#CCN(C)C1CCc2ccccc2C1` (single isomer, unassigned; (+)) [listing 1 of 2 here] was tested. Which Ratio IC50 (Rattus norvegicus) did it give?
**A.** 8.8

**Q.** For `C#CCN(C)C1CCc2ccccc2C1` (racemic) [listing 1 of 2 here], which IC50 [1] is on record?
**A.** 51 nM

**Q.** And the IC50 [2]?
**A.** 41 nM

**Q.** With `C#CCN(C)C1CCc2ccccc2C1` (racemic) [listing 2 of 2 here] as the molecule, how does the Ratio IC50 (Rattus norvegicus) read?
**A.** 1.2

**Q.** `C#CCN(C)C1CCc2ccccc2C1` (single isomer, unassigned; (-)) [listing 1 of 2 here] was tested. Which Ratio IC50 (Rattus norvegicus) did it give?
**A.** 0.5

**Q.** With `C#CCNC1CCc2ccccc2C1` (racemic) as the molecule, how does the selectivity ratio at 20 min (MAO-A [3]) read?
**A.** 5

**Q.** What about the IC50 [4] of the same molecule?
**A.** 721 nM

**Q.** What about the IC50 [5] of the same molecule?
**A.** 14.6 µM

**Q.** And the Ratio IC50 (Homo sapiens)?
**A.** 0.05

**Q.** And the activity at 0.25 h (MAO-A [6])?
**A.** 102%

**Q.** And the activity at 0.25 h (MAO-A [7])?
**A.** 46%

**Q.** What about the Activity [8] of the same molecule?
**A.** 7.5%

**Q.** What about the Activity [9] of the same molecule?
**A.** 0.3%

**Q.** What about the TDI [10] of the same molecule?
**A.** Tde

**Q.** And the Ki [11]?
**A.** 460 nM

**Q.** What about the Ki [12] of the same molecule?
**A.** 435 nM

**Q.** `C#CCN(C)C1CCc2ccccc2C1` (single isomer, unassigned; (+)) [listing 2 of 2 here] was tested. Which IC50 [1] did it give?
**A.** 140 nM

**Q.** And the IC50 [2]?
**A.** 16 nM

**Q.** For `C#CCN(C)Cc1ccccc1` [PARGYLINE], which activity at 0.25 h (MAO-A [13]) is on record?
**A.** 0.9%

**Q.** Which IC50 [1] does the source give for `C#CCN(C)C1CCc2ccccc2C1` (single isomer, unassigned; (-)) [listing 2 of 2 here] here?
**A.** 46 nM

**Q.** And the IC50 [2]?
**A.** 88 nM
